Data taken from BindingDB's records for doi:10.1016/j.bmcl.2018.06.004 (Peking University, 2018).
pIC50: −log10 of the molar value.

Experiments:
[1] = Inhibition of trypsin-like activity of 20S proteasome in human K562 cells using Z-LRRaminoluciferin as substrate after 2 hrs by luminescence assay
[2] = Inhibition of PGPH activity of 20S proteasome in human K562 cells using Z-nLPnLDaminoluciferin as substrate after 2 hrs by luminescence assay

- pIC50 [1]: < 4.00
- pIC50 [2]: < 4.00
Compound: CC(C)C[C@H](NC(=O)[C@H](Cc1ccccc1)NC(=O)N1C/C(=C\c2ccc(F)cc2)C(=O)/C(=C/c2ccc(F)cc2)C1)B(O)O
